According to PubChem BioAssay (NCI):
Values joined by “and” are separate entries in the source; they are usually repeats but may differ in a detail not shown here. Equal values may be shown once.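 48-hour exposure; five concentrations; linearly interpolated endpoints. GI50: concentration for 50% inhibition of growth. Definition used: TGI = concentration required for complete inhibition of growth.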 Where a SMILES comes first, the peptide text is derived from it. The star is where a group is joined. Boc = CC(C)(C)OC(=O)*

Assays:
Experiment in all cases: DTP human tumour cell line panel, 48 h
[1] = system: SK-MEL-5 melanoma
[2] = system: OVCAR-4 ovarian
[3] = system: HOP-62 NSCLC
[4] = system: SK-MEL-28 melanoma
[5] = system: SK-MEL-2 melanoma
[6] = system: SF-295 CNS
[7] = system: UO-31 renal
[8] = system: SK-OV-3 ovarian
[9] = system: CAKI-1 renal
[10] = system: 786-0 renal
[11] = system: SNB-19 CNS
[12] = system: KM12 colon
[13] = system: SNB-75 CNS
[14] = system: HCT-116 colon
[15] = system: A549 NSCLC
[16] = system: MDA-MB-231 breast
[17] = system: DU-145 prostate
[18] = system: NCI/ADR-RES ovarian

| Structure (SMILES) | TGI [1] | TGI [2] | TGI [3] | TGI [4] | TGI [5] | TGI [6] | TGI [7] | TGI [8] | TGI [9] | TGI [10] | TGI [11] | TGI [12] | TGI [13] | TGI [14] | TGI [15] | TGI [16] | TGI [17] | TGI [18] | GI50 [1] |
| --- | --- | --- | --- | --- | --- | --- | --- | --- | --- | --- | --- | --- | --- | --- | --- | --- | --- | --- | --- |
| O=C1NC(=O)C2C(=O)NC(=O)C1C2c1c(Cl)cccc1Cl (stereo unspecified) | > 100 µM | > 100 µM | > 100 µM | > 100 µM | > 100 µM | > 100 µM | > 100 µM | > 100 µM | > 100 µM | > 100 µM | > 100 µM | > 100 µM | > 100 µM | > 58.8 µM | > 100 µM | – | – | – | – |
| COc1cc2c3c(c1)CCCN3CCC2 | > 10 µM | > 10 µM | > 10 µM | > 10 µM | > 10 µM | > 10 µM | > 10 µM | > 10 µM | > 10 µM | > 10 µM | > 10 µM | > 10 µM | > 10 µM | > 10 µM | > 10 µM | > 10 µM | > 10 µM | > 10 µM | – |
| COC(=O)[C@@H]1CC(C(C[N+](=O)[O-])c2ccc(O[Si](C)(C)C(C)(C)C)cc2)C(=O)N1C(=O)OC(C)(C)C (stereo partly specified) | > 100 µM | > 100 µM | > 100 µM | > 100 µM | > 100 µM | > 100 µM | > 100 µM | > 100 µM | > 100 µM | > 100 µM | > 100 µM | > 100 µM | > 100 µM | > 100 µM | > 100 µM | > 100 µM | > 100 µM | – | > 100 µM and 39.9 µM |
| CCn1c2ccccc2c2ccc3c(c21)C(=O)C=CC3=O | – | 14.2 µM | 40 µM | 33.3 µM | 44 µM | 44.5 µM | 21.6 µM | 34 µM | – | 3.3 µM | – | 27.4 µM | 63.3 µM | 15.4 µM | > 100 µM | – | – | – | – |
| COc1ccc2c(c1)C(=O)C1CC(=O)CCC21 (stereo unspecified) | > 100 µM | > 100 µM | > 100 µM | > 100 µM | > 100 µM | > 100 µM | > 100 µM | > 100 µM | > 100 µM | > 100 µM | > 100 µM | > 100 µM | > 100 µM | > 100 µM | > 100 µM | – | – | – | – |
| Cc1[nH]c2ccccc2c1C(=O)CC1(O)C(=O)Nc2c(Cl)cc(Cl)cc21 (stereo unspecified) | 31.5 µM | 21.8 µM | > 100 µM | 62 µM | 81 µM | 56.2 µM | 60.9 µM | > 100 µM | 98.3 µM | > 100 µM | > 100 µM | > 100 µM | > 100 µM | > 100 µM | 96.3 µM | – | – | – | – |
| O=S1(=O)OCCOS(=O)(=O)C1(F)Br | > 100 µM | > 100 µM | > 100 µM | > 100 µM | > 100 µM | > 100 µM | > 100 µM | > 100 µM | > 100 µM | > 100 µM | > 100 µM | > 100 µM | > 100 µM | > 100 µM | > 100 µM | – | > 100 µM | > 100 µM | – |
| CC(=O)NC(CCCNC(=O)N(CCCl)N=O)C(=O)NCc1ccccc1 (stereo unspecified) | – | > 100 µM | > 100 µM | > 100 µM | > 100 µM | > 100 µM | > 100 µM | – | > 100 µM | > 100 µM | > 100 µM | > 100 µM | > 100 µM | > 100 µM | > 100 µM | – | – | – | – |
| O=C1OC(Cc2ccccc2)(N2CCCC2=O)C1c1ccccc1 (stereo unspecified) | > 100 µM | > 100 µM | > 100 µM | > 100 µM | > 100 µM | > 100 µM | > 100 µM | > 100 µM | > 100 µM | > 100 µM | > 100 µM | > 100 µM | > 100 µM | > 100 µM | > 100 µM | – | – | – | – |
| CC(C)(C)OC(=O)NC(Cc1ccc(O)cc1)C(=O)N1CCCC1C(=O)O (stereo not drawn) (Boc-Tyr-Pro-OH; configuration not given here) | > 100 µM | > 100 µM | > 100 µM | > 100 µM | > 100 µM | > 100 µM | > 100 µM | > 100 µM | > 100 µM | > 100 µM | > 100 µM | > 100 µM | > 100 µM | > 100 µM | > 100 µM | – | – | – | – |
| COc1cccc(NC(=O)CSc2nnc(-c3ccc(NC(C)=O)cc3)o2)c1 | > 100 µM | > 100 µM | > 100 µM | > 100 µM | > 100 µM | > 100 µM | > 100 µM | > 100 µM | > 100 µM | > 100 µM | – | > 100 µM | > 100 µM | > 100 µM | > 100 µM | – | – | – | – |
| CN(N=O)C(=O)ON1C(=O)CCC1=O | > 100 µM | > 100 µM | > 100 µM | > 100 µM | > 100 µM | – | > 100 µM | > 100 µM | > 100 µM | > 100 µM | > 100 µM | > 100 µM | > 100 µM | > 100 µM | > 100 µM | – | – | – | – |
